Holding throughout (test): combination Emax (second highest fraction inhibited in the dose matrix, 72 h); higher = more inhibition; extreme values may be limits of the assay
Assay [1] relates to AsPC-1 (Pancreatic Carcinoma). Put shortly: (§1)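 After 24 hours at 37°C and 5% CO2 in 1536-well plates, cells in DMEM/F12 or RPMI plus 10% FBS received two-drug dose matrices for 72 hours. Viability came from CellTiter-Glo 2.0 luminescence and was scaled as inhibition, anchored at 0 by vehicle wells and at 1 by blank wells. Combination Emax is taken as the second-highest inhibition in the matrix, and Bliss excess as the observed combination effect less EA + EB − EA·EB, with EA and EB the single-agent effects.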

The subject of another assay is CHL-1 (Melanoma). Put shortly:
as §1

The test system of assay [2] is CML-T1 (Chronic Myelogenous Leukemia). Put shortly: as §1
Assay [3] deals with COLO-684 (Endometrial Carcinoma). The method in brief:
as §1

The test system of a further assay is ES-2 (Ovarian Carcinoma). The method in brief:
as §1

Assay [4] concerns FLO-1 (Esophageal Adenocarcinoma). The method in brief:
as §1

Assay [5] relates to HSC-3 (Oral Cavity Carcinoma). Put shortly:
as §1

For a further assay, the system named is HuO-3N1 (Osteosarcoma). The method in brief: as §1
A further assay has as its system KYM-1 (Rhabdomyosarcoma). Put shortly: as §1
The test system of assay [6] is NCI-H1155 (Non-Small Cell Lung Carcinoma). The method in brief: as §1
Assay [7] concerns NCI-H1623 (Lung Adenocarcinoma). The method in brief: as §1
The subject of assay [8] is NCI-H1755 (Lung Adenocarcinoma). The method in brief:
as §1

The subject of assay [9] is NCI-H196 (Small Cell Lung Carcinoma). The method in brief: as §1
The test system of assay [10] is OCI-AML5 (Acute Myeloid Leukemia). Put shortly:
as §1

The subject of assay [11] is OV-90 (Ovarian Carcinoma). Put shortly: as §1
For assay [12], the system named is OVTOKO (Ovarian Carcinoma). The method in brief: as §1
The test system of assay [13] is PC-14 (Lung Adenocarcinoma). The method in brief:
as §1

The next assay concerns RT4 (Bladder Carcinoma). Put shortly: as §1
In assay [14] the test system is SK-MM-2 (Plasma Cell Myeloma). The method in brief: as §1
The subject of assay [15] is SW684 (Other Solid Carcinomas). Put shortly: as §1

Take `CC1(C)CCC(CN2CCN(c3ccc(C(=O)NS(=O)(=O)c4ccc(NCC5CCOCC5)c([N+](=O)[O-])c4)c(Oc4cnc5[nH]ccc5c4)c3)CC2)=C(c2ccc(Cl)cc2)C1` [Venetoclax] + CN(C)CCCOc1ccc(-c2ccc3ncc4c(c3c2)n(C2CCOCC2)c(=O)n4C)cn1 [AZD0156] (first compound max 1 µM, 7x7, partner max 1 µM): the “combination Emax” value was 0.193 in [1]; 0.27 in the assay on CHL-1 (Melanoma); 0.947 in assay [2]; 0.211 in assay [3]; 0.22 with ES-2 (Ovarian Carcinoma); 0.339 in assay [4]. Further, the “combination Emax” value in assay [5] stood at 0.233; in the assay with HuO-3N1 (Osteosarcoma), 0.262; with KYM-1 (Rhabdomyosarcoma), 0.158; in assay [6] it was 0.145; in [7], 0.262; in [8], 0.654. For the same molecule, the “combination Emax” value amounted to 0.113 in [9]; 0.901 in assay [10]; 0.3 in assay [11]; 0.385 in assay [12]; 0.259 in assay [13]; 0.189 in the assay on RT4 (Bladder Carcinoma). Also, the “combination Emax” value in assay [14] was determined as 1; in assay [15], 0.284.

As for `COc1cccc(OCCCN)c1-c1cc(Nc2cnc(C#N)cn2)n[nH]1` [Prexasertib] + C[C@@H]1COCCN1C2=NC(=NC(=C2)C3(CC3)[S@](=N)(=O)C)C4=C5C=CNC5=NC=C4 [AZD6738] (first compound max 1 µM, 7x7, partner max 10 µM), the “combination Emax” value is 0.416 in assay [1]; 0.884 in the assay with CHL-1 (Melanoma); 0.97 in [2]; 0.864 in assay [3]; 0.867 in the assay with ES-2 (Ovarian Carcinoma); 0.763 in assay [4]. Also, the “combination Emax” value in assay [5] turned out to be 0.731; with HuO-3N1 (Osteosarcoma), 0.432; with KYM-1 (Rhabdomyosarcoma) it was 0.956; in [6], 0.93; in assay [7], 0.827; in assay [8] it was 0.912. The “combination Emax” value in [9] was found to be 0.566; in assay [10], 0.988; in [11] it was 0.548; in assay [12], 0.516; in assay [13] it was 0.879; in the assay with RT4 (Bladder Carcinoma), 0.555. In addition, the “combination Emax” value in assay [14] worked out at 0.634; in assay [15], 0.451.

As for `C=CCn1c(=O)c2cnc(Nc3ccc(N4CCN(C)CC4)cc3)nc2n1-c1cccc(C(C)(C)O)n1` [AZD1775] + C1CN(CCC1(C(=O)N[C@@H](CCO)C2=CC=C(C=C2)Cl)N)C3=NC=NC4=C3C=CN4 [Capivasertib] (first compound max 3 µM, partner max 3 µM), the “combination Emax” value in [1] came to 0.505; with CHL-1 (Melanoma) it was 0.826; in [2] it was 0.932; in assay [3], 0.841; in the assay on ES-2 (Ovarian Carcinoma), 0.817; in [4] it was 0.921. Besides, the “combination Emax” value in [5] was found to be 0.773; in the assay with HuO-3N1 (Osteosarcoma), 0.633; in the assay with KYM-1 (Rhabdomyosarcoma), 0.767; in assay [6] it was 0.831; in assay [7] it was 0.597; in assay [8] it was 0.8. For the same molecule, the “combination Emax” value in [9] is 0.578; in assay [10] it was 0.893; in assay [11] it was 0.587; in assay [12], 0.594; in assay [13] it was 0.859; with RT4 (Bladder Carcinoma), 0.712. The figures for the “combination Emax” value in assay [14] and in assay [15] were 0.501 and 0.467, respectively.

For the molecule `Cn1cnc2c(F)c(Nc3ccc(Br)cc3Cl)c(C(=O)NOCCO)cc21` [Selumetinib] + C=CCn1c(=O)c2cnc(Nc3ccc(N4CCN(C)CC4)cc3)nc2n1-c1cccc(C(C)(C)O)n1 [AZD1775] (first compound max 10 µM, partner max 1 µM), the “combination Emax” value in assay [1] is 0.437; in the assay on CHL-1 (Melanoma), 0.572; in [2] it was 0.939; in [3], 0.708; in the assay with ES-2 (Ovarian Carcinoma), 0.66; in [4] it was 0.792. Besides, the “combination Emax” value in [5] was found to be 0.601; in the assay on HuO-3N1 (Osteosarcoma) it was 0.259; in the assay on KYM-1 (Rhabdomyosarcoma) it was 0.591; in assay [6] it was 0.342; in [7], 0.607; in assay [8], 0.776. Further, the “combination Emax” value in [9] worked out at 0.347; in [10] it was 0.944; in [11], 0.628; in assay [12], 0.452; in [13], 0.928; in the assay on RT4 (Bladder Carcinoma), 0.368. Also, the results for the “combination Emax” value in [14] and in assay [15] were 0.236 and 0.152, respectively.

`CN(CCO)CC[C@H](CSc1ccccc1)Nc1ccc(S(=O)(=O)NC(=O)c2ccc(N3CCC([C@@H](O)c4ccccc4-c4ccc(Cl)cc4)CC3)cc2)cc1S(=O)(=O)C(F)(F)F` [AZD4320] + C[C@@H]1COCCN1C2=NC(=NC(=C2)C3(CC3)[S@](=N)(=O)C)C4=C5C=CNC5=NC=C4 [AZD6738] (first compound max 1 µM, 7x7, partner max 10 µM): the “combination Emax” value in [1] came out at 0.662; with CHL-1 (Melanoma), 0.893; in assay [2], 1; in assay [3], 0.728; in the assay on ES-2 (Ovarian Carcinoma) it was 0.94; in assay [4] it was 0.742. Besides, the “combination Emax” value in assay [5] was 0.691; with HuO-3N1 (Osteosarcoma) it was 0.479; in the assay with KYM-1 (Rhabdomyosarcoma), 0.95; in [6], 0.985; in [7], 0.871; in assay [8] it was 0.831. The “combination Emax” value in [9] turned out to be 0.397; in assay [10], 1; in assay [11] it was 0.917; in assay [12], 0.54; in assay [13], 0.93; in the assay with RT4 (Bladder Carcinoma) it was 0.791. Besides, the “combination Emax” value turned out to be 1 in [14] and 0.537 in assay [15].

For the origin of these results see the supplement of paper PMC11061612.
